Legend:
[1] = test system: oligo I, d-(GGGATATATCCC)2, AT-rich oligonucleotide (DNA, duplex) GGGATATATCCC; assay: ITC; conditions: Na+ 100 mM (NaCl), 10 mM HEPES, pH 7.0, 25°C; for binding: 1000 µM ligand titrated into 10 µM DNA, nd; for Ka: apparent, (K1K2)^1/2 of two binding events
[2] = test system: oligo II, d-(GGGCGGCCGCCC)2, GC-rich oligonucleotide (DNA, duplex) GGGCGGCCGCCC; assay: ITC; conditions: Na+ 100 mM (NaCl), 10 mM HEPES, pH 7.0, 25°C; for binding: 1000 µM ligand titrated into 10 µM DNA, nd

| binding constant ([1]; control titration) | binding constant ([2]; control titration) | binding [1] | binding [2] | Ka [1] | Compound |
| --- | --- | --- | --- | --- | --- |
| – | – | – | no | 2.7±0.3 ×10^5 M^−1 | Cn1cc(NC(=O)c2cc(NC(=O)c3cccn3C)cn2C)cc1C(=O)NCCCn1cc(CN2CCCNCCNCCCNCC2)nn1 |
| – | – | – | no | 1.2±0.2 ×10^5 M^−1 | Cn1cc(NC(=O)c2cc(NC(=O)c3cccn3C)cn2C)cc1C(=O)NCCCn1cc(CN2CCCNCCNCCCNCC2)nn1.[Cu+2] |

Further lines, the molecule ahead of its results:

| Compound | binding constant ([1]; control titration) | binding constant ([2]; control titration) | binding [1] | binding [2] | Ka [1] |
| --- | --- | --- | --- | --- | --- |
| CC[n+]1c(-c2ccccc2)c2cc(N)ccc2c2ccc(N)cc21 | ~ 0.7×10^5 M^−1 | ~ 0.7×10^5 M^−1 | – | – | – |
| Cn1cccc1C(=O)NCCCn1cc(CN2CCCNCCNCCCNCC2)nn1 | – | – | no | no | – |
| Cn1cc(NC(=O)c2cc(NC(=O)c3cccn3C)cn2C)cc1C(=O)NCCCn1cc(CN2CCCNCCNCCCNCC2)nn1.[Zn+2] | – | – | – | no | 1.5±0.3 ×10^5 M^−1 |
| Cn1cc(NC(=O)c2cccn2C)cc1C(=O)NCCCn1cc(CN2CCCNCCNCCCNCC2)nn1 | – | – | no | no | – |
